# Measurements as given in US8192962B2, “Processes for detecting toxic substances” (Daikin Industries, Ltd., priority 2001, dated 2012).
# Test system: Mitochondria-located protein genes
# Experiment: DNA chip mRNA expression in yeast, mitochondria-located protein genes (Table 2)
# Type: cell-based, Saccharomyces cerevisiae S288C
# Settings: cells incubated two hours with the chemical substance
# Method in brief: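 Value is the scanned fluorescence intensity ratio of exposed versus chemical-free cells. Log-phase S288C yeast in YPD at 25° C. received one toxic substance for two hours, dosed to slow growth without killing; Cy3/Cy5-labeled cDNA from oligo-dT-purified mRNA was hybridized to a whole-genome chip at 65° C.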
smiles,measurement,setting,value
"[Cl][Cd][Cl] [(2), CdCl2]",The level of expressed mRNA in the presence of chemical substance/The level of expressed mRNA in the absence of chemical substance,yeast gene YAL039C,2.2
same,The level of expressed mRNA in the presence of chemical substance/The level of expressed mRNA in the absence of chemical substance,yeast gene YBL022C,0.8
same,The level of expressed mRNA in the presence of chemical substance/The level of expressed mRNA in the absence of chemical substance,yeast gene YBL030C,0.9
same,The level of expressed mRNA in the presence of chemical substance/The level of expressed mRNA in the absence of chemical substance,yeast gene YBL038W,0.9
same,The level of expressed mRNA in the presence of chemical substance/The level of expressed mRNA in the absence of chemical substance,yeast gene YBL099W,0.9
same,The level of expressed mRNA in the presence of chemical substance/The level of expressed mRNA in the absence of chemical substance,yeast gene YBR003W,0.8
same,The level of expressed mRNA in the presence of chemical substance/The level of expressed mRNA in the absence of chemical substance,yeast gene YBR044C,1.4
same,The level of expressed mRNA in the presence of chemical substance/The level of expressed mRNA in the absence of chemical substance,yeast gene YBR091C,1.0
same,The level of expressed mRNA in the presence of chemical substance/The level of expressed mRNA in the absence of chemical substance,yeast gene YBR122C,0.9
same,The level of expressed mRNA in the presence of chemical substance/The level of expressed mRNA in the absence of chemical substance,yeast gene YBR185C,1.0
same,The level of expressed mRNA in the presence of chemical substance/The level of expressed mRNA in the absence of chemical substance,yeast gene YBR221C,0.7
same,The level of expressed mRNA in the presence of chemical substance/The level of expressed mRNA in the absence of chemical substance,yeast gene YBR251W,0.9
same,The level of expressed mRNA in the presence of chemical substance/The level of expressed mRNA in the absence of chemical substance,yeast gene YBR282W,1.0
same,The level of expressed mRNA in the presence of chemical substance/The level of expressed mRNA in the absence of chemical substance,yeast gene YCL057W,1.5
same,The level of expressed mRNA in the presence of chemical substance/The level of expressed mRNA in the absence of chemical substance,yeast gene YCR046C,1.2
same,The level of expressed mRNA in the presence of chemical substance/The level of expressed mRNA in the absence of chemical substance,yeast gene YCR083W,2.8
same,The level of expressed mRNA in the presence of chemical substance/The level of expressed mRNA in the absence of chemical substance,yeast gene YDL067C,1.0
same,The level of expressed mRNA in the presence of chemical substance/The level of expressed mRNA in the absence of chemical substance,yeast gene YDL181W,1.8
same,The level of expressed mRNA in the presence of chemical substance/The level of expressed mRNA in the absence of chemical substance,yeast gene YDL198C,1.0
same,The level of expressed mRNA in the presence of chemical substance/The level of expressed mRNA in the absence of chemical substance,yeast gene YDR079W,1.1
same,The level of expressed mRNA in the presence of chemical substance/The level of expressed mRNA in the absence of chemical substance,yeast gene YDR178W,2.0
same,The level of expressed mRNA in the presence of chemical substance/The level of expressed mRNA in the absence of chemical substance,yeast gene YDR231C,1.6
same,The level of expressed mRNA in the presence of chemical substance/The level of expressed mRNA in the absence of chemical substance,yeast gene YDR258C,2.3
same,The level of expressed mRNA in the presence of chemical substance/The level of expressed mRNA in the absence of chemical substance,yeast gene YDR298C,1.2
same,The level of expressed mRNA in the presence of chemical substance/The level of expressed mRNA in the absence of chemical substance,yeast gene YDR347W,0.8
same,The level of expressed mRNA in the presence of chemical substance/The level of expressed mRNA in the absence of chemical substance,yeast gene YDR377W,1.1
same,The level of expressed mRNA in the presence of chemical substance/The level of expressed mRNA in the absence of chemical substance,yeast gene YDR529C,1.0
same,The level of expressed mRNA in the presence of chemical substance/The level of expressed mRNA in the absence of chemical substance,yeast gene YEL024W,0.9
same,The level of expressed mRNA in the presence of chemical substance/The level of expressed mRNA in the absence of chemical substance,yeast gene YEL039C,0.7
same,The level of expressed mRNA in the presence of chemical substance/The level of expressed mRNA in the absence of chemical substance,yeast gene YER178W,0.9
same,The level of expressed mRNA in the presence of chemical substance/The level of expressed mRNA in the absence of chemical substance,yeast gene YFL016C,1.0
same,The level of expressed mRNA in the presence of chemical substance/The level of expressed mRNA in the absence of chemical substance,yeast gene YGL018C,1.0
same,The level of expressed mRNA in the presence of chemical substance/The level of expressed mRNA in the absence of chemical substance,yeast gene YGL187C,0.8
same,The level of expressed mRNA in the presence of chemical substance/The level of expressed mRNA in the absence of chemical substance,yeast gene YGL191W,1.6
same,The level of expressed mRNA in the presence of chemical substance/The level of expressed mRNA in the absence of chemical substance,yeast gene YGR008C,3.0
same,The level of expressed mRNA in the presence of chemical substance/The level of expressed mRNA in the absence of chemical substance,yeast gene YGR028W,3.5
same,The level of expressed mRNA in the presence of chemical substance/The level of expressed mRNA in the absence of chemical substance,yeast gene YGR062C,1.0
same,The level of expressed mRNA in the presence of chemical substance/The level of expressed mRNA in the absence of chemical substance,yeast gene YGR076C,1.6
same,The level of expressed mRNA in the presence of chemical substance/The level of expressed mRNA in the absence of chemical substance,yeast gene YGR082W,0.9
same,The level of expressed mRNA in the presence of chemical substance/The level of expressed mRNA in the absence of chemical substance,yeast gene YGR174C,1.6
same,The level of expressed mRNA in the presence of chemical substance/The level of expressed mRNA in the absence of chemical substance,yeast gene YGR244C,1.2
same,The level of expressed mRNA in the presence of chemical substance/The level of expressed mRNA in the absence of chemical substance,yeast gene YHR008C,5.4
same,The level of expressed mRNA in the presence of chemical substance/The level of expressed mRNA in the absence of chemical substance,yeast gene YIL155C,0.7
same,The level of expressed mRNA in the presence of chemical substance/The level of expressed mRNA in the absence of chemical substance,yeast gene YJL096W,1.0
same,The level of expressed mRNA in the presence of chemical substance/The level of expressed mRNA in the absence of chemical substance,yeast gene YJL102W,0.7
same,The level of expressed mRNA in the presence of chemical substance/The level of expressed mRNA in the absence of chemical substance,yeast gene YJL133W,1.0
same,The level of expressed mRNA in the presence of chemical substance/The level of expressed mRNA in the absence of chemical substance,yeast gene YJL166W,1.5
same,The level of expressed mRNA in the presence of chemical substance/The level of expressed mRNA in the absence of chemical substance,yeast gene YJL180C,1.6
same,The level of expressed mRNA in the presence of chemical substance/The level of expressed mRNA in the absence of chemical substance,yeast gene YJR045C,1.9
same,The level of expressed mRNA in the presence of chemical substance/The level of expressed mRNA in the absence of chemical substance,yeast gene YJR077C,1.1
